Starred links: 1 amine or outer side, 2 acyl side, 3 side chain; linkers in the order of their positions; H or OH if unused. Positions of bridges follow the written chain, without caps; N, C: chain ends. Non-standard residues stand in square brackets, D forms with d. Residues, ends and D or L forms follow the SMILES beside them. X1 = O=C([C@]1(CC=[*:3])CCCN1[*:1])[*:2]; αAllylPro = C=CC[C@@]1(C(=O)O)CCCN1; Ala(cPr) = N[C@@H](CC1CC1)C(=O)O; S5 = C=CCCC[C@](C)(N)C(=O)O
What was measured:
[1] = CHI Log D measurement (chromatographic hydrophobicity index); conditions: for chromatographic logD: pH 7.4
in vitro = assay: in vitro; design: dose or concentration left out as unconfirmed; conditions: PAMPA
[2] = design: PAMPA Pe: dose or concentration left out as unconfirmed; conditions: for % Retention: PAMPA; for PAMPA Pe: 5 h, pH 7.4
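Throughout, for % Retention: Phospholipid-membrane PAMPA, donor and acceptor in DPBS pH 7.4 with 5% DMSO, 37 °C for 5 h, compound in each well quantified by reverse-phase HPLC-MS.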
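Throughout, for PAMPA Pe: Phospholipid-membrane PAMPA, donor and acceptor in DPBS pH 7.4 with 5% DMSO, 37 °C for 5 h, compound in each well quantified by reverse-phase HPLC-MS.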
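Throughout, for Papp: Phospholipid-membrane PAMPA, donor and acceptor in DPBS pH 7.4 with 5% DMSO, 37 °C for 5 h, compound in each well quantified by reverse-phase HPLC-MS.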

chromatographic logD [1] | Papp at 5 h (in vitro; pH 7.4, PAMPA Pe) | % Retention [2] | Papp at 5 h (in vitro; pH 7.4, average effective permeability (Pe) of control on accepted PAMPA plates) | PAMPA Pe [2] | CHI Log D compared to the parent ProLock stapled peptide ([1]; result in words) | chromatographic logD ([1]; reverse-phase HPLC, Phenomenex Gemini C-18 column) | Molecule
2.4 | ≤ 0.1 ×10⁻⁶ cm/s | 75 ± 1% | – | – | – | – | CNC(=O)[C@H](CC(=O)O)NC(=O)[C@H](CCC(N)=O)NC(=O)[C@H](CC(C)C)NC(=O)[C@H](CC(C)C)NC(=O)[C@H](Cc1ccc(O)cc1)NC(=O)[C@]1(C)CCCC=CCCC[C@](C)(NC(C)=O)C(=O)N[C@@H](C)C(=O)N[C@@H](CC2CC2)C(=O)N[C@@H](CC(C)C)C(=O)N1 [PLL7-7 variant 4, Ac-S5-Ala-Cpa-Leu-S5-Tyr-Leu-Leu-Gln-Asp-NHMe] (Ac-[S5]A[Ala(cPr)]L[S5]YLLQD-NHMe; staple 1-5)
– | 8.6 ± 0.3 ×10⁻⁶ cm/s | – | 7 to 11 ×10⁻⁶ cm/s | 8.6 ± 0.3 (x10^−6) cm/sec | – | – | CC(=O)CC(c1ccccc1)c1c(O)c2ccccc2oc1=O (stereo not drawn) [Warfarin, reference compound]
1.5 | ≤ 0.1 ×10⁻⁶ cm/s | 52 ± 8% | – | – | – | – | CNC(=O)[C@H](Cc1ccc(O)cc1)NC(=O)[C@@H](NC(=O)[C@H](CC(C)C)NC(=O)[C@H](CC(C)C)NC(=O)[C@H](CC(N)=O)NC(=O)[C@]1(C)CCCC=CC[C@]2(CCCN2)C(=O)N[C@@H](CCCCN)C(=O)N[C@@H](CC(C)C)C(=O)N1)[C@@H](C)O (single isomer, unassigned) [PLL4-5 variant 1, H-PL3-Lys-Leu-S5-Asn-Leu-Leu-Thr-Tyr-NHMe]
2.4 | 0.3 ± 0.1 ×10⁻⁶ cm/s | 82 ± 2% | – | – | – | – | CNC(=O)[C@H](CC(=O)O)NC(=O)[C@H](Cc1c[nH]cn1)NC(=O)[C@H](CC(C)C)NC(=O)[C@H](CC(C)C)NC(=O)[C@H](CCCNC(=N)N)NC(=O)[C@]1(C)CCCC=CC[C@]2(CCCN2C(C)=O)C(=O)O[C@@H](CC(C)C)C(=O)N[C@@H](CC(C)C)C(=O)N1 (single isomer, unassigned) [PLL7-9 variant 2, Ac-PL3-Lec-Leu-S5-Arg-Leu-Leu-His-Asp-NHMe]
3.3 | ≤ 0.1 ×10⁻⁶ cm/s | 43 ± 3% | – | – | – | – | CCCC[C@@H]1NC(=O)[C@H](CC(C)C)NC(=O)[C@]2(CC=CCCC[C@@](C)(C(=O)N[C@@H](CC(C)C)C(=O)N[C@@H](CC(C)C)C(=O)N[C@@H](Cc3c[nH]cn3)C(=O)N[C@@H](Cc3ccc(O)cc3)C(=O)NC)NC1=O)CCCN2C(C)=O (single isomer, unassigned) [PLL4-9, Ac-PL3-Leu-Nle-S5-Leu-Leu-His-Tyr-NHMe]
3.7 | ≤ 0.1 ×10⁻⁶ cm/s | 86 ± 2% | – | – | surprisingly high | – | CNC(=O)[C@H](CC(=O)O)NC(=O)[C@H](Cc1c[nH]cn1)NC(=O)[C@H](CC(C)C)NC(=O)[C@H](CC(C)C)NC(=O)[C@H](CCCNC(=N)N)NC(=O)[C@]1(C)CCCC=CC[C@]2(CCCN2)C(=O)N[C@@H](CC(C)C)C(=O)N[C@@H](CC(C)C)C(=O)N1 (single isomer, unassigned) [PLL7-9 variant 1, H-PL3-Leu-Leu-S5-Arg-Leu-Leu-His-Asp-NHMe]
4 | ≤ 0.1 ×10⁻⁶ cm/s | 48 ± 3% | – | – | – | – | CCCC[C@H](NC(=O)[C@H](CC(C)C)NC(=O)[C@]1(C)CCCC=CC[C@]2(CCCN2C(C)=O)C(=O)N[C@@H](C)C(=O)N[C@@H](CC(C)C)C(=O)N1)C(=O)N[C@@H](CC(C)C)C(=O)N[C@@H](C)C(=O)N[C@@H](Cc1ccc(O)cc1)C(=O)NC (single isomer, unassigned) [PLL4-6, Ac-PL3-Ala-Leu-S5-Leu-Nle-Leu-Ala-Tyr-NHMe]
2.7 | 0.3 ± 0.1 ×10⁻⁶ cm/s | 88 ± 4% | – | – | – | – | C=CCCC[C@](C)(NC(=O)[C@H](CC(C)C)NC(=O)[C@H](C)NC(=O)[C@]1(CC=C)CCCN1C(C)=O)C(=O)N[C@@H](Cc1c[nH]cn1)C(=O)N[C@@H](CC(C)C)C(=O)N[C@@H](CC(C)C)C(=O)N[C@@H](CC(N)=O)C(=O)NC [PLL7-20 variant 5, Ac-PL3-Ala-Leu-S5-His-Leu-Leu-Asn-NHMe] (Ac-[αAllylPro]AL[S5]HLLN-NHMe)
2.2 | 0.3 ± 0.1 ×10⁻⁶ cm/s | 106 ± 2% | – | – | – | – | CC(=O)N1CCC[C@]12CC=CCCC[C@@](C)(C(=O)N[C@@H](Cc1ccc(O)cc1)C(=O)N[C@@H](CC(C)C)C(=O)N[C@@H](CC(C)C)C(=O)N[C@@H](CC(=O)O)C(N)=O)NC(=O)[C@H](CC(C)C)NC(=O)[C@H](CC(C)C)NC2=O (single isomer, unassigned) [PLL4-10 variant 3, Ac-PL3-Leu-Leu-S5-Tyr-Leu-Leu-Asp-NH2]
1.6 | 0.4 ± 0.1 ×10⁻⁶ cm/s | 78 ± 8% | – | – | – | – | CC(=O)N1CCC[C@]12CC=CCCC[C@@](C)(C(=O)N[C@@H](CC(N)=O)C(=O)N[C@@H](CC(C)C)C(=O)N[C@@H](CC(C)C)C(=O)N[C@H](C(=O)N[C@@H](Cc1ccc(O)cc1)C(N)=O)[C@@H](C)O)NC(=O)[C@H](CC(C)C)NC(=O)[C@H](CCCCN)NC2=O (single isomer, unassigned) [PLL4-5 variant 3, Ac-PL3-Lys-Leu-S5-Asn-Leu-Leu-Thr-Tyr-NH2]
1.8 | 0.5 ± 0.1 ×10⁻⁶ cm/s | 75 ± 1% | – | – | – | – | CC(=O)N1CCC[C@]12CC=CCCC[C@@](C)(C(=O)N[C@@H](Cc1ccc(O)cc1)C(=O)N[C@@H](CC(C)C)C(=O)N[C@@H](CC(C)C)C(=O)N[C@@H](CCC(N)=O)C(=O)N[C@@H](CC(=O)O)C(N)=O)NC(=O)[C@H](CC(C)C)NC(=O)[C@H](CC1CC1)NC2=O (single isomer, unassigned) [PLL7-7 variant 3, Ac-PL3-Cpa-Leu-S5-Tyr-Leu-Leu-Gln-Asp-NH2]
2.1 | 0.5 ± 0.2 ×10⁻⁶ cm/s | 76 ± 10% | – | – | – | – | CC(=O)N1CCC[C@]12CC=CCCC[C@@](C)(C(=O)N[C@@H](Cc1c[nH]cn1)C(=O)N[C@@H](CC(C)C)C(=O)N[C@@H](CC(C)C)C(=O)N[C@@H](CC(N)=O)C(N)=O)NC(=O)[C@H](CC(C)C)NC(=O)[C@H](C)NC2=O (single isomer, unassigned) [PLL7-20 variant 3, Ac-PL3-Ala-Leu-S5-His-Leu-Leu-Asn-NH2]
2.6 | 0.9 ± 0.2 ×10⁻⁶ cm/s | 103 ± 2% | – | – | – | – | CNC(=O)[C@H](CC(N)=O)NC(=O)[C@H](CC(N)=O)NC(=O)[C@H](CC(C)C)NC(=O)[C@H](CC(C)C)NC(=O)[C@H](CC1CC1)NC(=O)[C@]1(C)CCCC=CC[C@]2(CCCN2C(C)=O)C(=O)N[C@@H](C)C(=O)N[C@@H](CC(C)C)C(=O)N1 (single isomer, unassigned) [PLL7-11, Ac-PL3-Ala-Leu-S5-Cpa-Leu-Leu-Asn-Asn-NHMe]
2.3 | 0.3 ± 0.1 ×10⁻⁶ cm/s | 84 ± 2% | – | – | – | – | C=CCCC[C@](C)(NC(=O)[C@H](CC(C)C)NC(=O)[C@H](CC1CC1)NC(=O)[C@]1(CC=C)CCCN1C(C)=O)C(=O)N[C@@H](Cc1ccc(O)cc1)C(=O)N[C@@H](CC(C)C)C(=O)N[C@@H](CC(C)C)C(=O)N[C@@H](CCC(N)=O)C(=O)N[C@@H](CC(=O)O)C(=O)NC [PLL7-7 variant 5, Ac-PL3-Cpa-Leu-S5-Tyr-Leu-Leu-Gln-Asp-NHMe] (Ac-[αAllylPro][Ala(cPr)]L[S5]YLLQD-NHMe)
2.9 | ≤ 0.1 ×10⁻⁶ cm/s | 74 ± 6% | – | – | – | – | CNC(=O)[C@H](CC(=O)O)NC(=O)[C@H](CC(C)C)NC(=O)[C@H](CC(C)C)NC(=O)[C@H](Cc1ccc(O)cc1)NC(=O)[C@]1(C)CCCC=CCCC[C@](C)(NC(C)=O)C(=O)N[C@@H](C)C(=O)N[C@@H](CC(C)C)C(=O)N[C@@H](CC(C)C)C(=O)N1 [PLL4-10 variant 4, Ac-S5-Ala-Leu-Leu-S5-Tyr-Leu-Leu-Asp-NHMe] (Ac-[S5]ALL[S5]YLLD-NHMe; staple 1-5)
2.6 | ≤ 0.1 ×10⁻⁶ cm/s | 74 ± 6% | – | – | – | – | CNC(=O)[C@H](CC(N)=O)NC(=O)[C@H](CC(C)C)NC(=O)[C@H](CC(C)C)NC(=O)[C@H](Cc1c[nH]cn1)NC(=O)[C@]1(C)CCCC=CCCC[C@](C)(NC(C)=O)C(=O)N[C@@H](C)C(=O)N[C@@H](C)C(=O)N[C@@H](CC(C)C)C(=O)N1 [PLL7-20 variant 4, Ac-S5-Ala-Ala-Leu-S5-His-Leu-Leu-Asn-NHMe] (Ac-[S5]AAL[S5]HLLN-NHMe; staple 1-5)
– | – | 92 ± 10% | – | ≤0.1 (×10^−6) cm/sec | – | – | Ac-PL3-Lec-Leu-S5-Tyr-Leu-Leu-Asp-NHMe [PLL4-10 variant 2]
1.4 | 0.4 ± 0.1 ×10⁻⁶ cm/s | 69 ± 2% | – | – | – | – | CNC(=O)[C@H](CC(=O)O)NC(=O)[C@H](CC(=O)O)NC(=O)[C@H](CC(C)C)NC(=O)[C@H](CC(C)C)NC(=O)[C@H](Cc1ccc(O)cc1)NC(=O)[C@]1(C)CCCC=CC[C@]2(CCCN2)C(=O)N[C@@H](CC(C)C)C(=O)N[C@@H](CC(C)C)C(=O)N1 (single isomer, unassigned) [PLL5-2 variant 1, H-PL3-Leu-Leu-S5-Tyr-Leu-Leu-Asp-Asp-NHMe]
1.8 | 0.4 ± 0.1 ×10⁻⁶ cm/s | 84 ± 2% | – | – | – | – | CNC(=O)[C@H](CC(=O)O)NC(=O)[C@H](CCC(N)=O)NC(=O)[C@H](CC(C)C)NC(=O)[C@H](CC(C)C)NC(=O)[C@H](Cc1ccc(O)cc1)NC(=O)[C@]1(C)CCCC=CC[C@]2(CCCN2)C(=O)N[C@@H](CC2CC2)C(=O)N[C@@H](CC(C)C)C(=O)N1 (single isomer, unassigned) [PLL7-7 variant 1, H-PL3-Cpa-Leu-S5-Tyr-Leu-Leu-Gln-Asp-NHMe]
– | ≤ 0.1 ×10⁻⁶ cm/s | 97 ± 1% | – | – | – | 3.2 | CNC(=O)[C@H](CCC(N)=O)NC(=O)[C@H](CC(C)C)NC(=O)[C@H](CC(C)C)NC(=O)[C@H](Cc1ccc(O)cc1)NC(=O)[C@]1(C)CCCC=CC[C@]2(CCCN2C(C)=O)C(=O)N[C@@H](CC(C)C)C(=O)N[C@@H](CC(C)C)C(=O)N1 [PLL5-12, Ac-PL3-Leu-Leu-S5-Tyr-Leu-Leu-Gln-NHMe] (Ac-[X1]LL[S5]YLLQ-NHMe; staple 1-4)
